Patent EP1724268A1, “COMPOUND HAVING TGF-BETA INHIBITORY ACTIVITY AND PHARMACEUTICAL COMPOSITION CONTAINING SAME” (KIRIN BEER KABUSHIKI KAISHA, priority 2004, dated 2005)
Like-named read-outs stand apart in the source and are kept apart here.

Test system: TGFβ signal
Experiment: TGFβ signal inhibitory activity, (SBE)4-Luc reporter in A549 cells (Test Examples 1A and 1B)
Type: cell-based, human
Conditions: Homo sapiens
Method: Test Example 1A: TGFβ signal inhibitory activity (in vitro test) The compounds according to the present invention was evaluated for TGFβ signal inhibitory activity according to the method described in J. Boil .Chem., 273, 21145-21152 (1998). Specifically, a plasmid having four tandem binding sequences of Smad3, a TGF-beta signal transducer, to the upstream of a luciferases gene were used as a reporter plasmid ((SBE)4-Luc) to detect TGF-beta signal, This reporter gene was introduced into human pulmonary carcinoma epithelial cells (A549) (available from ATCC) to establish a stable cell line. A test compound and TGFβ-1 (2 ng/ ml) were added to the cells, and the mixture was cultured for 4 hr. In this case, the compounds according to the present invention synthesized in the Examples were used as the test compound. After the culture, the luciferase activity of the cells were measured by chemiluminescence (Steady Glo (trademark) luciferase assay system, available from Promega). Likewise, the luciferase activity was measured as a control against the culture of cells with the addition of TGFβ only and the culture of cells without the addition of both TGFβ and the test compound.
The TGFβ inhibition (%) was calculated by the following equation, based on the measurement results. TGFβ inhibition(%) = (A-B)/(A-C) × 100 [formula] wherein • A: luciferase activity with the addition of TGFβ1 and without the addition of test compound (relative luciferase unit), • B: luciferase activity with the addition of both TGFβ1 and test compound (relative luciferase unit), and • C: luciferase activity without the addition of both TGFβ1 and test compound (relative luciferase unit).
The test was carried out for each of test compound at the concentrations of 3 µM and 10 µM. For certain test compounds, the test was further carried out for test compound at the concentration of 1 µM.
For the compounds of Reference Examples, the TGFβ signal inhibitory activity was evaluated in the same manner as in Test Example 1A.

[1] = A549, 3 µM, compounds of Reference Examples (Test Example 1B), read-out: TGFβ inhibition rate, %
[2] = A549, 10 µM, compounds of Reference Examples (Test Example 1B), read-out: TGFβ inhibition rate, %
[3] = A549, test compound 3 µM, Reference Examples, Table 1B, read-out: TGFβ inhibition rate, %
[4] = A549, test compound 10 µM, Reference Examples, Table 1B, read-out: TGFβ inhibition rate, %
[5] = A549, test compound 3 µM, TGFβ-1 2 ng/ml, 4 hr, Table 1A, read-out: TGFβ inhibition rate, %
[6] = A549, test compound 10 µM, TGFβ-1 2 ng/ml, 4 hr, Table 1A, read-out: TGFβ inhibition rate, %

SMILES | inhibition at 3 µM [1] | inhibition at 3 µM [5] | inhibition at 10 µM [6] | further results
COc1cc2nccc(Oc3ccc4ncsc4c3I)c2cc1OC [r294] | 53% |  |  | inhibition at 10 µM [2]: 77%
COc1cc2c(Oc3cc4ccccc4nc3C(C)=O)ccnc2cc1O [Compound r390] | 16% |  |  | inhibition at 10 µM [2]: 64%
COc1cc2nccc(Oc3cc(C)c(C)nc3-c3ccc(C)cn3)c2cc1OC [Compound r272] | 98% |  |  | inhibition at 10 µM [2]: 100%
COc1cc2nccc(Oc3ccc(Br)cc3C(=O)c3ccccc3)c2cc1OC [Compound r70] |  |  |  | inhibition at 3 µM [3]: 73%; inhibition at 10 µM [4]: 100%
COc1cc2c(Oc3ccc(C)cc3C(=O)c3ccccc3)ccnc2cc1OCCN1CCOCC1 [Compound r130] |  |  |  | inhibition at 3 µM [3]: 90%; inhibition at 10 µM [4]: 100%
Cc1cc(Oc2ccnc3cc(C(N)=O)ccc23)c(-c2ccccn2)nc1C [Compound 126, 4-(5,6-Dimethyl-[2,2']bipyridinyl-3-yloxy)-quinoline-7-carboxylic acid amide] |  | 93% | 100% | 
CCC(=O)c1cccc(F)c1Oc1ccnc2cc(OC)c(OC)cc12 [r43] |  |  |  | inhibition at 3 µM [3]: 0%; inhibition at 10 µM [4]: 66%
COc1cc2nccc(Oc3ccc(Cl)cc3C(=O)c3ccccc3)c2cc1OC [Compound r69] |  |  |  | inhibition at 3 µM (A549, read-out: TGFβ inhibition rate, %): 100%
COc1cc2nccc(Oc3cc4cccnc4nc3-c3ccccc3)c2cc1OC(C)C [Compound 118, 3-(6-Isopropoxy-7-methoxy-quinolin-4-yloxy)-2-phenyl-[1,8]naphthyridine] |  | 100% | 100% | 
Cc1cc(Oc2ncnc3ccccc23)c(-c2ccccn2)nc1C [Compound 23, 4-(5,6-Dimethyl-[2,2']bipyridinyl-3-yloxy)-quinazoline] |  | 78% | 98% | 
COc1cc2nccc(Oc3ccc(C)cc3CN3CCCCC3)c2cc1OC [Compound r6, 6,7-Dimethoxy-4-[4-methyl-2-(piperidinomethyl)phenoxy]quinoline] |  |  |  | inhibition at 3 µM [3]: 30%; inhibition at 10 µM [4]: 72%
COc1cc2nccc(Oc3ccc(Br)cc3C(C)=O)c2cc1OC [r34] |  |  |  | inhibition at 3 µM [3]: 0%; inhibition at 10 µM [4]: 78%
Cc1cc(Oc2ccnc3cc(-c4ccncc4)ccc23)c(-c2ccccn2)nc1C [Compound 19, 5,6-Dimethyl-3-(7-pyridin-4-yl-quinolin-4-yloxy)-[2,2']bipyridine] |  | 100% | 100% | 
COc1cc2c(Oc3cc4cccnc4nc3C)ccnc2cc1OCc1ccccc1 [Compound r397] | 71% |  |  | inhibition at 10 µM [2]: 100%
CCCCOC(=O)c1ccccc1Oc1ccnc2cc(OC)c(OC)cc12 [Compound r98] |  |  |  | inhibition at 3 µM [3]: 4%; inhibition at 10 µM [4]: 93%
COc1cc2c(Oc3cc(C)c(C)nc3-c3ccccc3)ccnc2cc1O [Compound r332] | 97% |  |  | inhibition at 10 µM [2]: 100%
Cc1cc(Oc2ccnc3cc(O)ccc23)c(-c2ccccn2)nc1C [Compound 140, 4-(5,6-Dimethyl-[2,2']bipyridinyl-3-yloxy)-quinolin-7-ol] |  | 99% | 100% | 
COc1cc2c(Oc3cc(C)c(C)nc3-c3ccccn3)ccnc2cc1OCC(O)CO (stereo not drawn) [Compound r342] | 89% |  |  | 
COc1ccc(Oc2ccnc3cc(OC(=O)N4CCOCC4)c(OC)cc23)c(C(C)=O)c1 [Compound r118, 4-(2-Acetyl-4-methoxyphenoxy)-6-methoxy-7-quinolyl 4-morpholine carboxylate] |  |  |  | inhibition at 3 µM [3]: 97%; inhibition at 10 µM [4]: 100%

SMILES | inhibition at 3 µM [1] | inhibition at 3 µM [5] | inhibition at 10 µM [6] | further results
Cc1cc(Oc2ccnc3ccc(-c4ccncc4)cc23)c(-c2ccccn2)nc1C [Compound 7, 5,6-Dimethyl-3-(6-pyridin-4-yl-quinolin-4-yloxy)-[2,2']bipyridine] |  | 100% | 100% | 
COc1cc2c(Oc3cc(C)c(C)nc3-c3nc(C)c(C)s3)ccnc2cc1OCC1CO1 (stereo not drawn) [Compound r458] | 94% |  |  | inhibition at 10 µM [2]: 100%
COc1cc2nccc(Oc3ccc(C)nc3/C=C/c3ccccc3)c2cc1OC [r216] | 22% |  |  | inhibition at 10 µM [2]: 73%
COc1cc2c(Oc3cc4ccccc4nc3C)ccnc2cc1OCC(CO)(CO)CO [Compound r388] | 88% |  |  | inhibition at 10 µM [2]: 100%
COc1cc2nccc(Oc3ccc(C)nc3C(=O)c3cccc(C)n3)c2cc1OC [r221] | 71% |  |  | inhibition at 10 µM [2]: 98%
Cc1cc(Oc2ccnc3cc(OCc4ccccc4)ccc23)c(-c2ccccn2)nc1C [Compound 137, 3-(7-Benzyloxy-quinolin-4-yloxy)-5,6-dimethyl-[2,2']bipyridine] |  | 88% | 100% | 
COc1cc2nccc(Oc3cc4cccnc4nc3-c3ccccc3)c2cc1O [Compound 124, 7-Methoxy-4-(2-phenyl-[1,8]naphthyridin-3-yloxy)-quinolin-6-ol] |  | 99% | 100% | 
COc1cc2nccc(Oc3cc(C)c(C)cc3-c3cccnc3)c2cc1OC [r170] | 76% |  |  | inhibition at 10 µM [2]: 100%
COc1ccc2c(Oc3cc4cccnc4nc3-c3ccccc3)ccnc2c1 [Compound 56, 3-(7-Methoxy-quinolin-4-yloxy)-2-phenyl-[1,8]naphthyridine] |  | 99% | 100% | 
CCc1ccc(Oc2ccnc3cc(C(C)(C)C)sc23)c(-c2ccccn2)n1 [Compound 180, 3-(2-Tert-butyl-thieno[3,2-b]pyridin-7-yloxy)-6-ethyl-[2,2']bipyridine] |  | 74% | 98% | 
COc1cc2c(Oc3ccc(C)cc3C(=O)c3ccccc3)ccnc2cc1OCC(O)CN1CCC(N2CCCC2)CC1 (stereo not drawn) [r155] |  |  |  | inhibition at 3 µM [3]: 100%; inhibition at 10 µM [4]: 100%
Cc1cc(Oc2ccnc3ccc(-c4cc5ccccc5o4)cc23)c(-c2ccccn2)nc1C [Compound 166, 3-(6-Benzofuran-2-yl-quinolin-4-yloxy)-5,6-dimethyl-[2,2']bipyridine] |  | 78% | 100% | 
COc1cc2c(Oc3cc(C)c(C)nc3-c3ccccc3)ccnc2cc1OCC1CO1 (stereo not drawn) [Compound r334] | 99% |  |  | 
c1cnc2nc(-c3csc4ccccc34)c(Oc3ccnc4ccccc34)cc2c1 [Compound 90, 2-Benzo[b]thiophen-3-yl-3-(quinolin-4-yloxy)-[1,8]naphthyridine] |  | 22% | 68% | 
COc1cc2nccc(Oc3cc4ccccc4nc3CCC(C)C)c2cc1OC [r439] | 43% |  |  | inhibition at 10 µM [2]: 95%
Cc1ccc(Oc2ccnc3ccc(OCCCN4CCN(CCO)CC4)cc23)c(-c2ncccn2)n1 [Compound 221, 2-(4-{3-[4-(6-Methyl-2-pyrimidin-2-yl-pyridin-3-yloxy)-quinolin-6-yloxy]-propyl}-piperazin-1-yl)-ethano I] |  | 39% | 79% | 
COc1cc2nccc(Oc3ccc(C(=O)c4cccc(C)c4)cc3)c2cc1OC [r78] |  |  |  | inhibition at 3 µM [3]: 0%; inhibition at 10 µM [4]: 57%
COc1cc2nccc(Oc3cc4cccnc4nc3-c3ccccc3)c2cc1F [Compound 59, 3-(6-Fluoro-7-methoxy-quinolin-4-yloxy)-2-phenyl-[1,8]naphthyridine] |  |  |  | inhibition at 1 µM (A549, test compound 1 µM, TGFβ-1 2 ng/ml, 4 hr, Table 1A, read-out: TGFβ inhibition rate, %): 93%
COc1cc2nccc(Oc3ccccc3C(=O)OC(C)C)c2cc1OC [Compound r93] |  |  |  | inhibition at 3 µM [3]: 44%; inhibition at 10 µM [4]: 88%
